Measured values taken from patent publication US8431514B2, “4-cyano-3-benzoylamino-N-phenyl-benzamides for use in pest control” (Syngenta Crop Protection LLC, priority 2009, dated 2013).
Where two headings read alike, the source gives them in different places.

Assays:
Type in all cases: in vivo
Plutella xylostella = Plutella xylostella (diamond back moth) artificial diet test; conditions: 144 h, application rate 200 ppm (concentration in well 18 ppm), L2 larvae, larval mortality and growth regulation after 6 days
Experimental: (§1) These Examples illustrate the insecticidal and acaricidal properties of the compounds of formula (I). The tests were performed as follows:
(§2) Cotton leaf discs were placed on agar in a 24-well microtiter plate and sprayed with test solutions at an application rate of 200 ppm. After drying, the leaf discs were infested with 5 L1 larvae. The samples were checked for mortality, feeding behavior, and growth regulation 3 days after treatment (DAT). The following compound gave at least 80% control of Spodoptera littoralis: A1, A2, A3, A4, A5, A6, A7, A8, A9, A10, A11, A12, A14, A15, A16, A17, A18, A19, A20. Heliothis Virescens (Tobacco Budworm): Eggs (0-24 h old) were placed in 24-well microtiter plate on artificial diet and treated with test solutions at an application rate of 200 ppm (concentration in well 18 ppm) by pipetting. After an incubation period of 4 days, samples were checked for egg mortality, larval mortality, and growth regulation. The following compound gave at least 80% control of Heliothis virescens: A1, A2, A3, A4, A5, A6, A7, A8, A9, A10, A11, A12, A14, A15, A16, A17, A18, A19, A20. Plutella Xylostella (Diamond Back Moth): 24-well microtiter plate (MTP) with artificial diet was treated with test solutions at an application rate of 200 ppm (concentration in well 18 ppm) by pipetting. After drying, the MTP's were infested with L2 larvae (7-12 per well). After an incubation period of 6 days, samples were checked for larval mortality and growth regulation. The following compound gave at least 80% control of Plutella xylostella: A1, A2, A3, A4, A5, A6, A7, A8, A9, A10, A11, A12, A13, A14, A15, A16, A17, A18, A19, A20. Diabrotica Balteata (Corn Root Worm): A 24-well microtiter plate (MTP) with artificial diet was treated with test solutions at an application rate of 200 ppm (concentration in well 18 ppm) by pipetting. After drying, the MTP's were infested with L2 larvae (6-10 per well). After an incubation period of 5 days, samples were checked for larval mortality and growth regulation. The following compound gave at least 80% control of Diabrotica balteata: A1, A2, A3, A4, A5, A6, A7, A8, A9, A10, A11, A12, A13, A14, A16, A17, A18, A19, A20. Thrips Tabaci (Onion Thrips): Sunflower leaf discs were placed on agar in a 24-well microtiter plate and sprayed with test solutions at an application rate of 200 ppm. After drying, the leaf discs were infested with an […] population of mixed ages. After an incubation period of 7 days, samples were checked for mortality. The following compounds gave at least 80% control of Thrips tabaci: A1, A2, A3, A4, A5, A6, A7, A8, A9, A10, A14, A16, A17, A18, A19, A20. Tetranychus Urticae (Two-Spotted Spider Mite): Bean leaf discs on agar in 24-well microtiter plates were sprayed with test solutions at an application rate of 200 ppm. After drying, the leaf discs are infested with mite populations of mixed ages. 8 days later, discs are checked for egg mortality, larval mortality, and adult mortality. The following compounds gave at least 80% control of Tetranychus urticae: A1, A2, A3, A4, A5, A6, A7, A8, A9, A10, A11, A12, A13, A14, A15, A16, A17, A19, A20.

Tetranychus urticae = Tetranychus urticae (two-spotted spider mite) bean leaf disc spray test; conditions: foliar, 192 h, read-out: control of Tetranychus urticae
Experimental: as §1, §2

Diabrotica balteata = Diabrotica balteata (corn root worm) artificial diet test; conditions: 120 h, application rate 200 ppm (concentration in well 18 ppm), L2 larvae, larval mortality and growth regulation after 5 days
Experimental: as §1, §2

Heliothis virescens = Heliothis virescens (tobacco budworm) egg test on artificial diet; conditions: 96 h, application rate 200 ppm (concentration in well 18 ppm), eggs 0-24 h old on artificial diet, egg mortality, larval mortality and growth regulation after 4 days
Experimental: as §1, §2

Thrips tabaci = Thrips tabaci (onion thrips) sunflower leaf disc spray test; conditions: foliar, 168 h, application rate 200 ppm, sunflower leaf discs, population of mixed ages, mortality after 7 days
Experimental: as §1, §2

Spodoptera littoralis = Spodoptera littoralis (Egyptian cotton leafworm) leaf disc spray test; conditions: foliar, 72 h, application rate 200 ppm, cotton leaf discs, 5 L1 larvae, mortality, feeding behavior and growth regulation 3 days after treatment
Experimental: as §1, §2

[1] = application rate 200 ppm, bean leaf discs, mite populations of mixed ages, egg, larval and adult mortality 8 days later

Measured: pest or weed control at 200 ppm

COCc1cc(C(F)(C(F)(F)F)C(F)(F)C(F)(F)F)cc(C)c1NC(=O)c1ccc(C#N)c(NC(=O)c2ccc(C#N)cc2C)c1 (stereo not drawn) [A9, 4-cyano-3-(4′-cyano-2′-methyl-benzoylamino)-N-[4-(1,2,2,3,3,3-hexafluoro-1-trifluoromethylpropyl)-2-methoxymethyl-6-methylphenyl]benzamide]
≥ 80%: Plutella xylostella | Tetranychus urticae; [1] | Diabrotica balteata | Heliothis virescens | Thrips tabaci | Spodoptera littoralis

CSc1cc(C(F)(C(F)(F)F)C(F)(F)C(F)(F)F)cc(Cl)c1NC(=O)c1ccc(C#N)c(NC(=O)c2ccc(C#N)cc2C)c1 (stereo not drawn) [A10, N-[2-chloro-4-(1,2,2,3,3,3-hexafluoro-1-trifluoromethylpropyl)-6-methylthiophenyl]-4-cyano-3-(4′-cyano-2′-methylbenzoylamino)benzamide]
≥ 80%: Plutella xylostella | Tetranychus urticae; [1] | Diabrotica balteata | Heliothis virescens | Thrips tabaci | Spodoptera littoralis

Cc1cc(C#N)ccc1C(=O)Nc1cc(C(=O)Nc2c(Cl)cc(C(F)(C(F)(F)F)C(F)(F)F)c(F)c2Cl)ccc1C#N [A14, 4-cyano-3-(4′-cyano-2′-methylbenzoylamino)-N-[2,6-dichloro-3-fluoro-4-(1,2,2,2-tetrafluoro-1-trifluoromethylethyl)phenyl]benzamide]
≥ 80%: Plutella xylostella | Tetranychus urticae; [1] | Diabrotica balteata | Heliothis virescens | Thrips tabaci | Spodoptera littoralis

Cc1cc(C#N)ccc1C(=O)Nc1cc(C(=O)Nc2c(C)cc(C(F)(C(F)(F)F)C(F)(F)C(F)(F)F)cc2C)ccc1C#N (stereo not drawn) [A16, 4-cyano-3-(4′-cyano-2′-methyl-benzoylamino)-N-[2,6-dimethyl-4-(1,2,2,3,3,3-hexafluoro-1-trifluoromethylpropyl)phenyl]benzamide]
≥ 80%: Plutella xylostella | Tetranychus urticae; [1] | Diabrotica balteata | Heliothis virescens | Thrips tabaci | Spodoptera littoralis

Cc1cc(C#N)ccc1C(=O)Nc1cc(C(=O)Nc2c(C)cc(C3(F)C(F)(F)C(F)(F)C(F)(F)C(F)(F)C3(F)F)cc2C)ccc1C#N [A17, 4-cyano-3-(4′-cyano-2′-methylbenzoylamino)-N-[2,6-dimethyl-4-(undecafluorocyclohexyl)phenyl]benzamide]
≥ 80%: Plutella xylostella | Tetranychus urticae | Diabrotica balteata | Heliothis virescens | Thrips tabaci | Spodoptera littoralis

Cc1cc(C#N)ccc1C(=O)Nc1cc(C(=O)Nc2c(Cl)cc(C(F)(C(F)(F)F)C(F)(F)F)cc2Cl)ccc1C#N [A19, 4-cyano-3-(4′-cyano-2′-methylbenzoylamino)-N-[2,6-dichloro-4-(1,2,2,2-tetrafluoro-1-trifluoromethylethyl)phenyl]benzamide]
≥ 80%: Plutella xylostella | Tetranychus urticae; [1] | Diabrotica balteata | Heliothis virescens | Thrips tabaci | Spodoptera littoralis

Cc1cc(C#N)ccc1C(=O)Nc1cc(C(=O)Nc2c(Cl)cc(C(F)(C(F)(F)F)C(F)(F)F)cc2Br)ccc1C#N [A20, 4-cyano-3-(4′-cyano-2′-methylbenzoylamino)-N-[2-bromo-6-chloro-4-(1,2,2,2-tetrafluoro-1-trifluoromethylethyl)phenyl]benzamide]
≥ 80%: Plutella xylostella | Tetranychus urticae; [1] | Diabrotica balteata | Heliothis virescens | Thrips tabaci | Spodoptera littoralis
